Assay results from patent publication US11814367B2, “Inhibitors of glycogen synthase 1 (GYS1) and methods of use thereof” (Maze Therapeutics, Inc., priority 2021, dated 2023).

How the values were obtained:
[1] = biological target: hGYS2 enzyme (recombinant hGYS2/GN1 protein) (Homo sapiens (Human), UniProt P54840); test: GYS2 coupled enzyme assay (PK/LDH); type: biochemical; conditions: geometric mean of at least 2 assay runs on separate days, read-out: Avg_IC50
Procedure, shortened: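 Recombinant hGYS2/GN1 (200 nM) with 2 mM UDP-glucose, 0.2% rabbit liver glycogen, 2 mM glucose-6-phosphate; UDP coupled via PK/LDH (2 mM PEP, 0.6 mM NADH). Buffer 50 mM Tris pH 7.5, 2 mM MgCl2, 100 mM KCl, 2.5% DMSO. A340 slope over 10 min; IC50 from Hill fit of duplicates.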

[2] = system: hGYS1 enzyme / glycogen synthesis in HeLa cells; test: GYS1 cell based assay (glycogen synthesis, Glucose-glo); design: species or system human; conditions: Homo sapiens, HeLa, 24 h, 24 h incubation, 20 mM glucose, geometric mean of at least 2 runs
Procedure, shortened: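 HeLa cells starved 24 h in medium containing only 1× Glutamax were plated onto compound in medium with 20 mM glucose (1% DMSO final) for 24 h, 37 °C, 5% CO2. Acid lysates were Tris-quenched, glucoamylase-digested (pH 5.3, 1 h, 37 °C) and read by Glucose-glo luminescence. IC50 came from Hill fits, as geometric mean of ≥2 runs.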

[3] = biological target: hGYS1 enzyme (recombinant hGYS1/GN1 protein) (Homo sapiens (Human), UniProt P13807); test: GYS1 coupled enzyme assay (PK/LDH); type: biochemical; conditions: hGYS1/GN1 50 nM, UDP-Glucose 0.8 mM, G6P 1 mM; geometric mean of at least 2 runs
hGYS1 enzyme (recombinant hGYS1/GN1 protein), sequence (P13807 whole entry): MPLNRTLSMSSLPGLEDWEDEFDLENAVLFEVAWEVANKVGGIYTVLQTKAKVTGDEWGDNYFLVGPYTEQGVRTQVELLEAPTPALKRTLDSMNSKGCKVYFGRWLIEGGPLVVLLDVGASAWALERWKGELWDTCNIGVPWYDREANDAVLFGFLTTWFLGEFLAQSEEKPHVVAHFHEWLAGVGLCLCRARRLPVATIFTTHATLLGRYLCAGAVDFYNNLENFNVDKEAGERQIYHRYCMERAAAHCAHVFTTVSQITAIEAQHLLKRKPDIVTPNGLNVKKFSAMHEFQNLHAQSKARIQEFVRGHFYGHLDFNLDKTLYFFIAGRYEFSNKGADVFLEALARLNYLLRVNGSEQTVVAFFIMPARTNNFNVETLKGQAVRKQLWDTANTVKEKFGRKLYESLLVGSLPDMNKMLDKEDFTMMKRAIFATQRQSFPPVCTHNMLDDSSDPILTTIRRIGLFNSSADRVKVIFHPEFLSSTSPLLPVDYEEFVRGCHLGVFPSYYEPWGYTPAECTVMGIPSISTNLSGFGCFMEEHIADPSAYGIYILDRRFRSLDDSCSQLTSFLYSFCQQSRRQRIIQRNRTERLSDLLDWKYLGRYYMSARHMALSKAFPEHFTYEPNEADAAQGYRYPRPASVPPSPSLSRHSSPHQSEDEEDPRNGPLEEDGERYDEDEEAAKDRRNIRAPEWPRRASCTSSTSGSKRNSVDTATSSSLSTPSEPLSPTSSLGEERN
hGYS1 enzyme (recombinant hGYS1/GN1 protein), sequence (P46976 whole entry partner): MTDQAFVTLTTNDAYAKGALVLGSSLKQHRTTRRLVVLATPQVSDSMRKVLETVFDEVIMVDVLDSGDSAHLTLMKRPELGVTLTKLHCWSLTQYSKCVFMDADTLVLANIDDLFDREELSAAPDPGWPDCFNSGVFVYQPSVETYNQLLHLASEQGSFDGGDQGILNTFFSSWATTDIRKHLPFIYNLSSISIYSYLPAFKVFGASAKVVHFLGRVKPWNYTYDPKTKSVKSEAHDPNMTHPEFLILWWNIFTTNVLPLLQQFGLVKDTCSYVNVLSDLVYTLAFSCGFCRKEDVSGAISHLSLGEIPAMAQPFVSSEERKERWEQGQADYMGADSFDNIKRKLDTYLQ

hGYS2 enzyme (recombinant hGYS2/GN1 protein), sequence (P54840 whole entry): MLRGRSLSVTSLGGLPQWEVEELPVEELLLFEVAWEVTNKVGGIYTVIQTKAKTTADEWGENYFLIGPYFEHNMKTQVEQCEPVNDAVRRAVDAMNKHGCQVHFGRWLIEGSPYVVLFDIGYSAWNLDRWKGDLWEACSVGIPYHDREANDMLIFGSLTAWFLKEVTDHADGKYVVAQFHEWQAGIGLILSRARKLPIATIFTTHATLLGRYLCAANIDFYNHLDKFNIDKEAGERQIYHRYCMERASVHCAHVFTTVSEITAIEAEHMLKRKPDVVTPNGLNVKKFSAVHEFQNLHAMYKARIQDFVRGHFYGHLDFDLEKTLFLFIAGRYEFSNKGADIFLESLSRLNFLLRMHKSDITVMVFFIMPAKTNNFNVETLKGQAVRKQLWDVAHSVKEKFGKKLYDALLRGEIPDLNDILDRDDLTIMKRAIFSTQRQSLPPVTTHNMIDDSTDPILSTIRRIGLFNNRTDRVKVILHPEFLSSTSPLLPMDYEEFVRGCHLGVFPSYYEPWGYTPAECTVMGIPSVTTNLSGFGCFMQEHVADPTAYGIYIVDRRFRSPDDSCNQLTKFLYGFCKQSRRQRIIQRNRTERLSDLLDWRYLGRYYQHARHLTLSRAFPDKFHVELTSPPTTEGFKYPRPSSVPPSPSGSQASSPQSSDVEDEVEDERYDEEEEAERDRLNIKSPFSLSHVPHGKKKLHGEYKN
hGYS2 enzyme (recombinant hGYS2/GN1 protein), sequence (P46976 whole entry partner): as the sequence (P46976 whole entry partner) above

Row | IC50 [1] [nM] | IC50 [2] [nM] | IC50 [3] [nM] | SMILES
1 | > 100000 | 160 | 6 | O=C(N[C@@H](c1ccccc1)c1ccc(C2CC2)c(F)n1)[C@@H]1C[C@@H](F)CN1C(=O)Cn1cnc2ccccc21 [Compound 294, (2S,4R)-1-[2-(1H-1,3-benzodiazol-1-yl)acetyl]-N-[(S)-(5-cyclopropyl-6-fluoropyridin-2-yl)(phenyl)methyl]-4-fluoropyrrolidine-2-carboxamide]
2 | > 100000 | 1230 | 75 | CC(C)c1ccc([C@@H](NC(=O)[C@@H]2C[C@@H](F)CN2C(=O)Cn2nnnc2C(F)F)c2ccccc2)nc1 [Compound 254, (2S,4R)-1-{2-[5-(difluoromethyl)-1H-1,2,3-tetrazol-1-yl]acetyl}-4-fluoro-N-[(S)-phenyl[5-(propan-2-yl)pyridin-2-yl]methyl]pyrrolidine-2-carboxamide]
3 | > 100000 | 240 | 8 | O=C(N[C@@H](c1ccccc1)c1ccc(C2CC(F)(F)C2)c(F)n1)[C@@H]1C[C@@H](F)CN1C(=O)CNC(=O)N1CCC1 [Compound 503, (2S,4R)-1-{2-[(azetidine-1-carbonyl)amino]acetyl}-N-[(S)-[5-(3,3-difluorocyclobutyl)-6-fluoropyridin-2-yl](phenyl)methyl]-4-fluoropyrrolidine-2-carboxamide]
4 | > 100000 | 390 | 17 | O=C(N[C@@H](c1ccccc1)c1ccc(C2CC2)c(F)n1)[C@@H]1C[C@@H](F)CN1C(=O)Cn1ncc(N2CCC2)n1 [Compound 317, (2S,4R)-1-{2-[4-(azetidin-1-yl)-2H-1,2,3-triazol-2-yl]acetyl}-N-[(S)-(5-cyclopropyl-6-fluoropyridin-2-yl)(phenyl)methyl]-4-fluoropyrrolidine-2-carboxamide]
5 | > 100000 | 670 | 25 | Cn1cc(CC(=O)N2C[C@H](F)C[C@H]2C(=O)N[C@@H](c2ccccc2)c2ccc(C3CC3)c(F)c2)c2ccccc21 [Compound 463, (2S,4R)-N-[(S)-(4-cyclopropyl-3-fluorophenyl)(phenyl)methyl]-4-fluoro-1-[2-(1-methyl-1H-indol-3-yl)acetyl]pyrrolidine-2-carboxamide]
6 | > 100000 | 740 | 26 | CC(C)c1ccc([C@@H](NC(=O)[C@@H]2C[C@@H](F)CN2C(=O)Cc2cccn3c(=O)[nH]nc23)c2ccccc2)nc1 [Compound 258, (2S,4R)-4-fluoro-1-(2-{3-oxo-2H,3H-[1,2,4]triazolo[4,3-a]pyridin-8-yl}acetyl)-N-[(S)-phenyl[5-(propan-2-yl)pyridin-2-yl]methyl]pyrrolidine-2-carboxamide]
7 | > 100000 | 280 | 10 | CC(C)c1ccc([C@@H](NC(=O)[C@@H]2C[C@@H](F)CN2C(=O)Cn2ccc(C(F)F)n2)c2ccccc2)nc1F [Compound 789, (2S,4R)-1-{2-[3-(difluoromethyl)-1H-pyrazol-1-yl]acetyl}-4-fluoro-N-[(S)-[6-fluoro-5-(propan-2-yl)pyridin-2-yl](phenyl)methyl] pyrrolidine-2-carboxamide]
8 | > 100000 | 480 | 80 | CC(C)c1ccc([C@@H](NC(=O)[C@@H]2C[C@@H](F)CN2C(=O)COC(=O)N2CCN(C(=O)OC(C)(C)C)CC2)c2ccccc2)cc1F [Compound 364, 1-tert-butyl 4-{2-[(2S,4R)-4-fluoro-2-{[(S)-[3-fluoro-4-(propan-2-yl)phenyl](phenyl)methyl]carbamoyl}pyrrolidin-1-yl]-2-oxoethyl} piperazine-1,4-dicarboxylate]
9 | > 100000 | 330 | 10 | Cn1cc(CC(=O)N2C[C@H](F)C[C@H]2C(=O)N[C@@H](c2ccccc2)c2ccc(C3(C)CC3)c(F)n2)c2ccccc21 [Compound 592, (2S,4R)-4-fluoro-N-[(S)-[6-fluoro-5-(1-methylcyclopropyl)pyridin-2-yl](phenyl)methyl]-1-[2-(1-methyl-1H-indol-3-yl)acetyl]pyrrolidine-2-carboxamide]
10 | > 100000 | 870 | 36 | Cn1c(CC(=O)N2C[C@H](F)C[C@H]2C(=O)N[C@@H](c2ccccc2)c2ccc(C3(C)CC3)c(F)c2)cc2ccccc21 [Compound 561, (2S,4R)-4-fluoro-N-[(S)-[3-fluoro-4-(1-methylcyclopropyl)phenyl](phenyl)methyl]-1-[2-(1-methyl-1H-indol-2-yl)acetyl]pyrrolidine-2-carboxamide]
11 | > 100000 | 320 | 19 | CC(C)c1ccc([C@@H](NC(=O)[C@@H]2C[C@@H](F)CN2C(=O)COC(=O)N2CCNCC2)c2ccccc2)cc1F [Compound 363, 2-[(2S,4R)-4-fluoro-2-{[(S)-[3-fluoro-4-(propan-2-yl)phenyl](phenyl)methyl]carbamoyl}pyrrolidin-1-yl]-2-oxoethyl piperazine-1-carboxylate]
12 | > 100000 | 710 | 8 | O=C(N[C@@H](c1ccccc1)c1ccc(C2CC(F)(F)C2)c(F)n1)[C@@H]1C[C@@H](F)CN1C(=O)Cc1ccc(=O)[nH]c1 [Compound 516, (2S,4R)-N-[(S)-[5-(3,3-difluorocyclobutyl)-6-fluoropyridin-2-yl](phenyl)methyl]-4-fluoro-1-[2-(6-oxo-1,6-dihydropyridin-3-yl)acetyl]pyrrolidine-2-carboxamide]
13 | > 100000 | 3350 | 221 | O=C(N[C@@H](c1ccccc1)c1ccc(C2CC2)c(F)c1)[C@@H]1C[C@@H](F)CN1C(=O)Cn1cnnn1 [Compound 431, (2S,4R)-N-[(S)-(4-cyclopropyl-3-fluorophenyl)(phenyl)methyl]-4-fluoro-1-[2-(1H-1,2,3,4-tetrazol-1-yl)acetyl]pyrrolidine-2-carboxamide]
14 | > 100000 | 660 | 71 | Cc1cc([C@@H](NC(=O)[C@@H]2C[C@@H](F)CN2C(=O)Cc2cnn[nH]2)c2ccccc2)ccc1C(C)C [Compound 670, (2S,4R)-4-fluoro-N-[(S)-[3-methyl-4-(propan-2-yl)phenyl](phenyl)methyl]-1-[2-(1H-1,2,3-triazol-5-yl)acetyl]pyrrolidine-2-carboxamide]
15 | > 100000 | 2130 | 168 | CC(C)c1cnc(C(NC(=O)[C@@H]2C[C@@H](F)CN2C(=O)Cc2cnn[nH]2)c2ccccc2)cc1F (single isomer, unassigned) [Compound 605, (2S,4R)-4-fluoro-N-[(S) or (R)-[4-fluoro-5-(propan-2-yl)pyridin-2-yl] (phenyl)methyl]-1-[2-(1H-1,2,3-triazol-5-yl)acetyl]pyrrolidine-2-carboxamide]
16 | > 100000 | 260 | 11 | O=C(N[C@@H](c1ccccc1)c1ccc(C2CC(F)(F)C2)c(F)c1)[C@@H]1C[C@@H](F)CN1C(=O)CNC(=O)N1CCC1 [Compound 544, (2S,4R)-1-((azetidine-1-carbonyl)glycyl)-N—((S)-(4-(3,3-difluorocyclobutyl)-3-fluorophenyl)(phenyl)methyl)-4-fluoropyrrolidine-2-carboxamide]
17 | > 100000 | 23400 | 2550 | CC1(c2ccc([C@H](NC(=O)[C@@H]3C[C@@H](F)CN3C(=O)Cc3n[nH]c4ccccc34)c3ccccc3)nc2F)CC1 [Compound 590, (2S,4R)-4-fluoro-N-[(R)-[6-fluoro-5-(1-methylcyclopropyl)pyridin-2-yl](phenyl)methyl]-1-[2-(1H-indazol-3-yl)acetyl]pyrrolidine-2-carboxamide]
18 | > 100000 | 1410 | 68 | O=C(N[C@@H](c1ccccc1)c1ccc(C2CC2)c(F)c1)[C@@H]1C[C@@H](F)CN1C(=O)Cc1cccn2c(=O)[nH]nc12 [Compound 482, (2S,4R)-N-[(S)-(4-cyclopropyl-3-fluorophenyl)(phenyl)methyl]-4-fluoro-1-(2-{3-oxo-2H,3H-[1,2,4]triazolo[4,3-a]pyridin-8-yl}acetyl) pyrrolidine-2-carboxamide]
19 | > 100000 | 320 | 25 | CC(C)c1c(F)cc(C(NC(=O)[C@@H]2C[C@@H](F)CN2C(=O)Cn2ccnn2)c2ccccc2)cc1F (single isomer, unassigned) [Compound 668, (2S,4R)-N-[(S) or (R)-[3,5-difluoro-4-(propan-2-yl)phenyl](phenyl)methyl]-4-fluoro-1-[2-(1H-1,2,3-triazol-1-yl)acetyl]pyrrolidine-2-carboxamide]
20 | > 100000 | 210 | 7 | Cc1cn(CC(=O)N2C[C@H](F)C[C@H]2C(=O)N[C@@H](c2ccccc2)c2ccc(C3CC(F)(F)C3)c(F)c2)c(=O)[nH]c1=O [Compound 551, (2S,4R)-N-[(S)-[4-(3,3-difluorocyclobutyl)-3-fluorophenyl](phenyl)methyl]-4-fluoro-1-[2-(5-methyl-2,4-dioxo-1,2,3,4-tetrahydropyrimidin-1-yl)acetyl]pyrrolidine-2-carboxamide]
